In patent US6387950B2, “Treatment of tumors with RARα selective retinoid compounds in combination with other anti-tumor agents” (Allergan Sales, Inc., priority 2000, dated 2002):

Assays:
[1] = biological target: T1, RARα receptors (Homo sapiens, UniProt P10276); experiment: chimeric receptor transactivation assay, RARα; assay type: cell-based
T1 sequence (P10276 183-417 limits assumed): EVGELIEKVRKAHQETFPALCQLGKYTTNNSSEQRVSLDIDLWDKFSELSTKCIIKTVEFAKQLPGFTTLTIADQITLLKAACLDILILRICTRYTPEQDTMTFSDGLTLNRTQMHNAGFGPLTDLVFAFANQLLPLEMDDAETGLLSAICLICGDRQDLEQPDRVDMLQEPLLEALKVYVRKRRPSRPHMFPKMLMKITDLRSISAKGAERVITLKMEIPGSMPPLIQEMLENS
Excerpt: (§1) For example, a chimeric receptor transactivation assay which tests for agonist-like activity in the RARα, RARβ, RARγ, RXRα receptor subtypes, and which is based on work published by Feigner P. L. and Holm M. (1989) Focus, 112 is described in detail in U.S. Pat. No. 5,455,265. The specification of U.S. Pat. No. 5,455,265 is hereby expressly incorporated by reference.
(§2) The results obtained in this assay are expressed in EC50 numbers, as they are also in the chimeric receptor transactivation assay.

[2] = biological target: T2, RARβ receptors (Homo sapiens, UniProt P10826); experiment: chimeric receptor transactivation assay, RARβ; assay type: cell-based; conditions: agonist activity
T2 sequence (P10826 183-417 limits assumed): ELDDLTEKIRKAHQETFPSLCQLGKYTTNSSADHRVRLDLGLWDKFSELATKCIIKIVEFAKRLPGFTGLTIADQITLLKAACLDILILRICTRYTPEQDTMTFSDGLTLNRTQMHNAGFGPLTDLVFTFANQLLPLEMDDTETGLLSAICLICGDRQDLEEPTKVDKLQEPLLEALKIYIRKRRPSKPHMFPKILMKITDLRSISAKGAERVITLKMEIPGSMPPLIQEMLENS
Excerpt: as §1, §2

[3] = test system: SKBR-3 cells; experiment: cell proliferation assay (BrdU incorporation), SKBR-3; assay type: cell-based, human
Method: (§3) The SKBR-3 and T47-D cell cultures in which the assay procedures were performed are also well known and are available from sources well known in the art. Specifically, as is known, T-47D is an estrogen receptor positive (ER^+) human breast cancer cell line, and SK-BR-3 is an estrogen receptor negative (ER^−) human breast cancer cell line. The assay procedure which itself is well known in the art, involves determining incorporation of 5-bromo-2′-deoxyuridine (BrdU) into the cells. As is known, incorporation of less BrdU represents less cell proliferation (inhibition of cell proliferation), and this assay is accepted in the art as a measure of anti-proliferative or anti-tumor activity of the assayed agent or agents.
(§4) The estrogen receptor-positive (ER^+) cell line T-47D and the ER^−-cell line SK-BR-3 were cultured in Dulbecco's modification of Eagle's medium (DMEM Gibco BRL, Gaithersburg, Md.) supplemented with 10% fetal bovine serum (HyClone, Logan, Utah), 2 mM L-glutamine and 1% antibiotics-antimycotics (Gibco BRL). Cell lines were obtained from the American Type Culture Collection (ATCC, Rockville, Md., HTB-133 and HTB-30 for T47-D and SKBR-3, respectively). Cells were cultured at 37° C. in a humidified atmosphere containing 5% CO2.
(§5) Proliferation of cancer cell lines was determined using a commercial cell proliferation kit (Roche Diagnostics), essentially following the instructions of the manufacturer. Cells were seeded into 96-well tissue culture plates (Corning Incorporated, Corning, N.Y.) at a concentration of 3000 cells/well. After 24 hours, cells were treated with Compound 2 (AGN195183) and/or interferons (IFNs) or solvent alone. The appropriate concentrations of Compound 2 (AGN195183) used in this study were between 10^−11M and 10^−6M; IFNs concentrations were between 25 and 1000 Unit/ml. Culture media were changed every 72 hours. After 7days, 10 μl of 5-bromo-2′-deoxyuridine (BrdU) was added to each well. Incubation with BrdU was stopped 24 hours later by adding 100 μl of anti-BrdU antibody to each well. The amount of BrdU incorporated into the DNA of proliferating cells was assessed by measuring absorbance at 450 nm. Each experiment was performed in triplicate.
(§6) The growth inhibition observed in the cell cultures as a result of treatment with a combination of Compound 2 (AGN195183) of the invention and the interferons (IFNs) was analyzed for synergistic and additive effects.
(§7) Synergism was defined as: %A×% B>%AB
(§8) Additivity was defined as: %A×%B=%AB
(§9) where A and B are the effects of each individual agent and AB is the effect of the combination, in accordance with the teaching of Aapro et al., Cancer Chemother. Pharmacol., 10: 161 -166, 1983, and Marth et al., J. Natl. Cancer Inst., 77:1197-1202, 1986), both of which are expressly incorporated herein by reference.
(§10) Referring now to the graphs of FIGS. 1 through 12, each of these represents the results obtained in the above described assays where SKBR-3 and T47-D cells, respectively, were treated with a combination of Compound 2 of the invention and human recombinant interferon (IFN) α, β, and γ, respectively. The graph of FIG. 13 illustrates the results of treatment of these two cell cultures only with Compound 2 of the invention, without the use of any other anti-tumor agent. In each of these graphs the incorporation of 5-bromo-2′-deoxyuridine (BrdU) is plotted on the Y (vertical) axis and varying concentration of Compound 2 of the invention or varying concentration of IFNα. IFNβ or of IFNγ, respectively is plotted on the X (horizontal) axis. The concentration of the interferons is expressed in international units, as is accepted in the art, whereas the molar concentration of Compound 2 is plotted on a logarithmic scale. […]

[4] = test system: T47-D cells; experiment: cell proliferation assay (BrdU incorporation), T47-D; assay type: cell-based, human
Method: as §3, §4, §5, §6, §7, §8, §9, §10

`CC1(C)CCC(C)(C)c2c1cc(C(=O)Nc1cc(F)c(C(=O)O)c(F)c1)c(O)c2Cl` [Compound 2, 2,6-Difluoro-4-[(3-hydroxy-4-chloro-5,5,8 8-tetramethyl-5,6,7,8-tetrahydronaphthalene-2-carbonyl) -amino]-benzoic acid] was tested. Which EC50 [1] did it give?
The EC50 was 180 nM.

And the efficiency [1]?
The efficiency was 75%.

And the EC50 [2]?
The EC50 was > 10000 nM.

What about the “anti-proliferative effect of the combination (BrdU incorporation)” value (shortened to “anti-proliferative effect”) ([3]; Compound 2 10 nM, IFNα varied, FIG. 1) of the same molecule?
The value was “synergistic effect”.

What about the “anti-proliferative effect” value ([3]; Compound 2 10 nM, IFNα varied, FIG. 1, listed as AGN 195183) of the same molecule?
Its value is “synergism”.

What about the “anti-proliferative effect” value ([3]; Compound 2 10 nM, IFNβ varied, FIG. 2) of the same molecule?
Its value is “significant synergistic effect”.

What about the “anti-proliferative effect” value ([3]; Compound 2 10 nM, IFNβ varied, FIG. 2, listed as AGN 195183) of the same molecule?
Its value is “synergism”.

And the “anti-proliferative effect” value ([3]; Compound 2 10 nM, IFNγ varied, FIG. 3)?
The value was “significant synergistic effect”.

And the “anti-proliferative effect” value ([3]; Compound 2 10 nM, IFNγ varied, FIG. 3, listed as AGN 195183)?
The value was “synergism”.

What about the “anti-proliferative effect” value ([3]; IFNα 100 U/ml, Compound 2 varied, FIG. 4) of the same molecule?
Its value is “significant synergistic effect”.

And the “anti-proliferative effect” value ([3]; IFNα 100 U/ml, Compound 2 varied, FIG. 4, listed as AGN 195183)?
The value was “synergism”.

What about the “anti-proliferative effect” value ([3]; IFNβ 100 U/ml, Compound 2 varied, FIG. 5) of the same molecule?
Its value is “significant synergistic effect”.

And the “anti-proliferative effect” value ([3]; IFNβ 100 U/ml, Compound 2 varied, FIG. 5, listed as AGN 195183)?
The value was “synergism”.

What about the “anti-proliferative effect” value ([3]; IFNγ 100 U/ml, Compound 2 varied, FIG. 6) of the same molecule?
Its value is “significant synergistic effect”.

What about the “anti-proliferative effect” value ([3]; IFNγ 100 U/ml, Compound 2 varied, FIG. 6, listed as AGN 195183) of the same molecule?
The value was “synergism”.

And the “anti-proliferative effect” value ([4]; Compound 2 100 nM, IFNα varied, FIG. 7)?
The value was “additive”.

What about the “anti-proliferative effect” value ([4]; Compound 2 100 nM, IFNβ varied, FIG. 8) of the same molecule?
Its value is “significantly synergistic”.

What about the “anti-proliferative effect” value ([4]; Compound 2 100 nM, IFNβ varied, FIG. 8, listed as AGN 195183) of the same molecule?
Its value is “synergism”.

And the “anti-proliferative effect” value ([4]; Compound 2 100 nM, IFNγ varied, FIG. 9)?
Its value is “significantly synergistic”.

And the “anti-proliferative effect” value ([4]; Compound 2 100 nM, IFNγ varied, FIG. 9, listed as AGN 195183)?
Its value is “synergism”.

What about the “anti-proliferative effect” value ([4]; IFNα 100 U/ml, Compound 2 varied, FIG. 10) of the same molecule?
Its value is “not very effective and merely additive”.

What about the “anti-proliferative effect” value ([4]; IFNβ 100 U/ml, Compound 2 varied, FIG. 11) of the same molecule?
The value was “synergistic inhibition”.

And the “anti-proliferative effect” value ([4]; IFNβ 100 U/ml, Compound 2 varied, FIG. 11, listed as AGN 195183)?
The value was “synergism”.

What about the “anti-proliferative effect” value ([4]; IFNγ 100 U/ml, Compound 2 varied, FIG. 12) of the same molecule?
The value was “synergistic inhibition was observed, in the cotreatment with IFNγ only at higher concentrations of Compound 2”.

And the “anti-proliferative effect” value ([4]; IFNγ 100 U/ml, Compound 2 varied, FIG. 12, listed as AGN 195183)?
The value was “synergism”.
